Where “and” joins values, the source holds several entries; their conditions need not be identical. Equal entries are not always repeated. Toxic doses and inconclusive results are not listed.
System: P388 leukemia ip, CD2F1 mice, survival T/C
Experiment: NCI In Vivo Anticancer Drug Screen. Data for tumor model P388 Leukemia (intraperitoneal) in CD2F1 (CDF1) mice
Settings: endpoint: median survival time, higher = longer survival
Method in brief: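 Mice carrying the transplanted tumor received test compound or vehicle. Survival was recorded in each group, and the value is the treated-group measurement divided by that of the vehicle-treated control group.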

[1] = dose: 50.0 mg/kg/injection, schedule: Q01DX009 (ip), vehicle: saline with Tween-80
[2] = dose: 100.0 mg/kg/injection, schedule: Q01DX009 (ip), vehicle: saline with Tween-80
[3] = dose: 200.0 mg/kg/injection, schedule: Q01DX009 (ip), vehicle: saline with Tween-80
[4] = dose: 50.0 mg/kg/injection, schedule: Q01DX009 (ip), vehicle: saline
[5] = dose: 25.0 mg/kg/injection, schedule: Q04DX003 (ip), vehicle: saline with Tween-80
[6] = dose: 50.0 mg/kg/injection, schedule: Q04DX003 (ip), vehicle: saline with Tween-80
[7] = dose: 60.0 mg/kg/injection, schedule: Q01DX005 (ip), vehicle: saline with Tween-80
[8] = dose: 120.0 mg/kg/injection, schedule: Q01DX005 (ip), vehicle: saline with Tween-80
[9] = dose: 240.0 mg/kg/injection, schedule: Q01DX005 (ip), vehicle: saline with Tween-80
[10] = dose: 50.0 mg/kg/injection, schedule: Q01DX005 (ip), vehicle: saline with Tween-80
[11] = dose: 100.0 mg/kg/injection, schedule: Q01DX005 (ip), vehicle: saline with Tween-80
[12] = dose: 200.0 mg/kg/injection, schedule: Q01DX005 (ip), vehicle: saline with Tween-80

`CCN(CC)CCCC(=O)O` was tested, and the T/C (dose: 50.0 mg/kg/injection, schedule: Q01DX005 (ip), vehicle: saline) was 100 % of control, the T/C (dose: 100.0 mg/kg/injection, schedule: Q01DX005 (ip), vehicle: saline) was 100 % of control and the T/C (dose: 200.0 mg/kg/injection, schedule: Q01DX005 (ip), vehicle: saline) was 100 % of control.
In the case of `CCc1ccc(C2=C(Cl)C(=O)C(c3ccccc3)=C(Cl)C2=O)cc1`, the T/C (dose: 12.5 mg/kg/injection, schedule: Q01DX005 (ip), vehicle: Klucel (hydroxypropylcellulose) (HPC)) is reported as 98 % of control, the T/C (dose: 25.0 mg/kg/injection, schedule: Q01DX005 (ip), vehicle: Klucel (hydroxypropylcellulose) (HPC)) is reported as 93 % of control and the T/C (dose: 50.0 mg/kg/injection, schedule: Q01DX005 (ip), vehicle: Klucel (hydroxypropylcellulose) (HPC)) is reported as 93 % of control and 98 % of control.
In the case of `Cc1ccn(C)c(=N)c1`, the T/C [1] is reported as 118 % of control, the T/C [2] is reported as 100 % of control and the T/C [3] is reported as 104 % of control.
`COC(=O)C(N)=NCC(C)NC(=O)c1ccccc1` (stereo not given) was tested, and the T/C (dose: 50.0 mg/kg/injection, schedule: Q01DX009 (ip), vehicle: Klucel (hydroxypropylcellulose) (HPC)) was 99 % of control, the T/C (dose: 100.0 mg/kg/injection, schedule: Q01DX009 (ip), vehicle: Klucel (hydroxypropylcellulose) (HPC)) was 101 % of control and the T/C (dose: 200.0 mg/kg/injection, schedule: Q01DX009 (ip), vehicle: Klucel (hydroxypropylcellulose) (HPC)) was 100 % of control.
`O=c1ccn(C2OC(CO)C(O)C2O)c(=O)[nH]1` (stereo not given) was tested, and the T/C (dose: 25.0 mg/kg/injection, schedule: Q01DX009 (ip), vehicle: water) was 100 % of control, the T/C (dose: 32.0 mg/kg/injection, schedule: Q01DX009 (ip), vehicle: Klucel (hydroxypropylcellulose) (HPC)) was 90 % of control and the T/C (dose: 32.0 mg/kg/injection, schedule: Q01DX009 (ip), vehicle: saline) was 86 % of control and 87 % of control. For the same molecule, the T/C [4] was 108 % of control, the T/C (dose: 50.0 mg/kg/injection, schedule: Q01DX009 (ip), vehicle: water) was 100 % of control and the T/C (dose: 64.0 mg/kg/injection, schedule: Q01DX009 (ip), vehicle: Klucel (hydroxypropylcellulose) (HPC)) was 90 % of control. The T/C (dose: 100.0 mg/kg/injection, schedule: Q01DX009 (ip), vehicle: saline) was 94 % of control and 115 % of control, the T/C (dose: 100.0 mg/kg/injection, schedule: Q01DX009 (ip), vehicle: water) was 106 % of control and the T/C (dose: 128.0 mg/kg/injection, schedule: Q01DX009 (ip), vehicle: Klucel (hydroxypropylcellulose) (HPC)) was 88 % of control. The T/C (dose: 200.0 mg/kg/injection, schedule: Q01DX009 (ip), vehicle: saline) was 94 % of control and 112 % of control, the T/C (dose: 200.0 mg/kg/injection, schedule: Q01DX009 (ip), vehicle: water) was 106 % of control and the T/C (dose: 256.0 mg/kg/injection, schedule: Q01DX009 (ip), vehicle: Klucel (hydroxypropylcellulose) (HPC)) was 98 % of control. The T/C (dose: 400.0 mg/kg/injection, schedule: Q01DX009 (ip), vehicle: saline) was 103 % of control and 100 % of control, the T/C (dose: 400.0 mg/kg/injection, schedule: Q01DX009 (ip), vehicle: water) was 108 % of control and the T/C (dose: 512.0 mg/kg/injection, schedule: Q01DX009 (ip), vehicle: Klucel (hydroxypropylcellulose) (HPC)) was 98 % of control. The T/C (dose: 800.0 mg/kg/injection, schedule: Q01DX009 (ip), vehicle: saline) was 98 % of control, the T/C (dose: 1024.0 mg/kg/injection, schedule: Q01DX009 (ip), vehicle: saline) was 100 % of control and 89 % of control and the T/C (dose: 1600.0 mg/kg/injection, schedule: Q01DX009 (ip), vehicle: saline) was 98 % of control.
With `COC1=C(OC)C(=O)C=CC1=O` the T/C (dose: 0.78 mg/kg/injection, schedule: Q01DX009 (ip), vehicle: saline) was 101 % of control, the T/C (dose: 1.56 mg/kg/injection, schedule: Q01DX009 (ip), vehicle: saline) was 94 % of control and the T/C (dose: 3.13 mg/kg/injection, schedule: Q01DX009 (ip), vehicle: saline) was 96 % of control. For the same molecule, the T/C (dose: 6.25 mg/kg/injection, schedule: Q01DX009 (ip), vehicle: saline) was 102 % of control.
`O=S1C2CCC(Cl)C1CCC2Cl` (stereo not given) was tested, and the T/C (dose: 0.78 mg/kg/injection, schedule: Q01DX009 (ip), vehicle: Klucel (hydroxypropylcellulose) (HPC)) was 112 % of control and the T/C (dose: 1.56 mg/kg/injection, schedule: Q01DX009 (ip), vehicle: Klucel (hydroxypropylcellulose) (HPC)) was 90 % of control.
In the case of `Cc1cc(N(CCCl)CCCl)ccc1N=Nc1ccccc1C(=O)[O-].Cc1cc(N(CCCl)CCCl)ccc1N=Nc1ccccc1C(=O)[O-].[Cu+2]`, the T/C (dose: 12.0 mg/kg/injection, schedule: Q04DX003 (ip), vehicle: saline with Tween-80) is reported as 150 % of control, the T/C (dose: 12.5 mg/kg/injection, schedule: Q01DX009 (ip), vehicle: saline with Tween-80) is reported as 209 % of control and the T/C (dose: 12.5 mg/kg/injection, schedule: Q04DX003 (ip), vehicle: saline with Tween-80) is reported as 154 % of control. For the same molecule, the T/C (dose: 25.0 mg/kg/injection, schedule: Q01DX009 (ip), vehicle: saline with Tween-80) was 95 % of control, the T/C [5] was 195 % of control and the T/C [6] was 95 % of control. The T/C (dose: 375.0 micrograms/kg/injection, schedule: Q04DX003 (ip), vehicle: saline) was 109 % of control, the T/C (dose: 750.0 micrograms/kg/injection, schedule: Q04DX003 (ip), vehicle: saline) was 109 % of control and the T/C (dose: 1500.0 micrograms/kg/injection, schedule: Q04DX003 (ip), vehicle: saline) was 104 % of control.
`CC(C)(C)c1ccc(C(=O)NNC(O)C(F)(F)F)cc1` (stereo not given) was tested, and the T/C (dose: 100.0 mg/kg/injection, schedule: Q04DX002 (ip), vehicle: Klucel (hydroxypropylcellulose) (HPC)) was 101 % of control and the T/C (dose: 200.0 mg/kg/injection, schedule: Q04DX002 (ip), vehicle: Klucel (hydroxypropylcellulose) (HPC)) was 103 % of control.
For `C[C@]12CC[C@H]([C@@]3(C)CC[C@H]4CC[C@]43O)[C@@H](CO)[C@@H]1CC[C@@H]2O`, the T/C [7] was 104 % of control, the T/C [8] was 98 % of control and the T/C [9] was 91 % of control.
With `COC(=O)NC1(NC(=O)OC)NC(=O)c2cc(OC)c(OC)cc2N1` the T/C (dose: 25.0 mg/kg/injection, schedule: Q01DX005 (ip), vehicle: saline with Tween-80) was 102 % of control, the T/C [10] was 99 % of control and the T/C [11] was 98 % of control. The T/C [12] was 118 % of control.
With `O=P1(CNc2ccccc2)CN(c2ccccc2)CN(c2ccccc2)C1` the T/C (dose: 12.5 mg/kg/injection, schedule: Q01DX001 (ip), vehicle: saline with Tween-80) was 100 % of control, the T/C (dose: 25.0 mg/kg/injection, schedule: Q01DX001 (ip), vehicle: saline with Tween-80) was 100 % of control and the T/C (dose: 50.0 mg/kg/injection, schedule: Q01DX001 (ip), vehicle: saline with Tween-80) was 100 % of control.
For `CC1=CC2N(C=C1)C(c1ccccc1)=NON2c1cc(C)ccn1` (stereo not given), the T/C (dose: 7.5 mg/kg/injection, schedule: Q01DX005 (ip), vehicle: saline with Tween-80) was 91 % of control, the T/C (dose: 15.0 mg/kg/injection, schedule: Q01DX005 (ip), vehicle: saline with Tween-80) was 94 % of control and the T/C (dose: 30.0 mg/kg/injection, schedule: Q01DX005 (ip), vehicle: saline with Tween-80) was 91 % of control.
For `CN(C)/C(=N\O)c1ccccc1`, the T/C (dose: 3.12 mg/kg/injection, schedule: Q04DX003 (ip), vehicle: saline) was 100 % of control and 105 % of control, the T/C (dose: 6.25 mg/kg/injection, schedule: Q04DX003 (ip), vehicle: saline) was 100 % of control and 90 % of control and the T/C (dose: 12.5 mg/kg/injection, schedule: Q04DX003 (ip), vehicle: saline) was 100 % of control and 95 % of control.
`CC1=CC2=C(C(N)=O)C(=O)OC2(C)C(c2ccccc2)C1` (stereo not given) was tested, and the T/C [7] was 101 % of control, the T/C [8] was 101 % of control and the T/C [9] was 100 % of control.
For `CCCCCCCCCCCC(=O)CCCCC`, the T/C (dose: 100.0 mg/kg/injection, schedule: Q01DX009 (ip), vehicle: other) was 90 % of control, the T/C (dose: 200.0 mg/kg/injection, schedule: Q01DX009 (ip), vehicle: other) was 100 % of control and the T/C (dose: 400.0 mg/kg/injection, schedule: Q01DX009 (ip), vehicle: other) was 104 % of control.
In the case of `O=C(Oc1c(Br)c(N(C(=O)c2ccccc2)c2ccccc2)c(OC(=O)c2ccccc2)c(Br)c1N(C(=O)c1ccccc1)c1ccccc1)c1ccccc1`, the T/C [10] is reported as 91 % of control, the T/C [11] is reported as 95 % of control and the T/C [12] is reported as 89 % of control.
For `CC(=O)Nc1nc(N)nc2c1CC(N(Cc1ccc(Cl)cc1)C(C)=O)CC2` (stereo not given), the T/C [1] was 108 % of control, the T/C [2] was 119 % of control and the T/C [3] was 154 % of control.
With `NCC(=O)c1ccc(O)c(O)c1` the T/C (dose: 25.0 mg/kg/injection, schedule: Q01DX009 (ip), vehicle: saline) was 100 % of control, the T/C [5] was 108 % of control and the T/C [4] was 113 % of control. The T/C [6] was 108 % of control and the T/C (dose: 100.0 mg/kg/injection, schedule: Q04DX003 (ip), vehicle: saline with Tween-80) was 104 % of control and 121 % of control.
